Values of other authors in patent US6521254B2, “Single-dose antihistamine/decongestant formulations for treating rhinitis” (J-Med Pharmaceuticals, Inc., priority 1998, dated 2003).

Key:
[1] = 30 mg pseudoephedrine, immediate release, syrup
[2] = tested on: histamine receptors; settings: for duration of therapeutic benefit suitable for dosing interval (FDA standard, labeling): cetirizine 5 mg and 10 mg, loratidine 10 mg, fexofenadine 180 mg
[3] = compared with other non-sedating and with sedating antihistamines

Row | Compound | duration of action [1] [h] | duration of therapeutic antihistaminic benefit ([2]; 5 mg cetirizine, immediate release) [h] | duration of therapeutic benefit suitable for dosing interval (FDA standard, labeling) [2] [h] | duration of antihistaminic effect ([2]; oral, human) [h] | time after dosing at which antihistaminic effect is exerted (onset) ([2]; oral, human, given alone / immediate release) | sedation [3]
1 | CN[C@@H](C)[C@@H](O)c1ccccc1 [pseudoephedrine] | 4 to 6 | – | – | – | – | –
2 | O=C(O)COCCN1CCN(C(c2ccccc2)c2ccc(Cl)cc2)CC1 (centres unmarked) [cetirizine] | – | 24 | 24 | 24 | one | slightly more sedation than other non-sedating antihistamines
3 | CCOC(=O)N1CCC(=C2c3ccc(Cl)cc3CCc3cccnc32)CC1 [loratidine] | – | – | 24 | > 24 | – | –
